Source: PubChem BioAssay AID1553 (Sanford-Burnham Center for Chemical Genomics, 2009)
Several values for one entry are separate records, joined by “and”; a condition that tells them apart may be missing. Identical values can stand only once. Activity calls are given as the source filed them.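 Rule for the calls: active = compounds graded as giving a low, moderate or strong rise in tritium labelling of cell protein versus solvent control; inactive = the rest.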

Test system: HeLa cells, 3H-mannose incorporation into glycoproteins
Test: 3H-mannose glycoprotein labeling increase in HeLa – HeLa cells, orthogonal assay for PMI inhibitor project, late-stage follow-up (AID 1553);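 note: 1 fold = DMSO treated HeLa control cells; higher fold signals phosphomannose isomerase inhibition routing mannose into glycosylation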
[1] = fold increase, at 25 µM, stronger effect = higher value

Compound	fold increase 3H incorporation (at 100 µM)	fold increase 3H incorporation [1]
Clc1cccc(N=c2ssnc2Cl)c1	0.4	1.7
O=c1c2ccccc2sn1-c1ccc2ccccc2c1	1.9	1.6
OCc1ccccc1N=c1ssnc1Cl	0.9 (inactive)	0.9
O=c1c2ccccc2sn1-c1cccc(S(=O)(=O)Nc2ccc(Cl)cc2)c1	0.7 (inactive)	0.4
COc1ccc(-c2nc(=S)[nH][nH]2)cc1OC	0.8 (inactive)	
O=c1c2ccc(O)cc2sn1C1CCCC1	0.8 (inactive)	1.1
CCc1cc(CC)c(N=c2ssnc2Cl)c(CC)c1	0.2	0.3
O=c1c2c([N+](=O)[O-])cc([N+](=O)[O-])cc2sn1-c1ccccc1F	0.9 (inactive)	0.9
O=c1c2cc(F)ccc2sn1-c1ccccc1	1.6	2.3
Cc1ccc(C)c(-n2sc3ccccc3c2=O)c1	1.5	1.4
Clc1ccc(N=c2ssnc2Cl)cc1	0.2 (inactive)	1.1
O=[N+]([O-])c1ccc(N=c2ssnc2Cl)c2ccccc12	0.4	0.5
FC(F)(F)c1ccc(N=c2ssnc2Cl)cc1	0.3	1.4
COc1cc(-c2nc(=S)[nH][nH]2)cc(OC)c1OC	0.8 (inactive)	
COc1cc([N+](=O)[O-])ccc1N=c1ssnc1Cl	1.4	1.3
N#Cc1ccc(N=c2ssnc2Cl)cc1	1.1 (inactive)	1
O=c1c2ccccc2sn1-c1ccc(F)cc1	2.5	2.5
Cc1ccc(N=c2ssnc2Cl)nc1	0	1.2
Cc1[nH]n(-c2ccccc2)c(=S)c1C=Nc1cccc([N+](=O)[O-])c1	0.7 (inactive)	
Cc1ccc(C)c(-n2sc3ccc(F)cc3c2=O)c1	1	2.9
COc1cccc(-n2sc3ccccc3c2=O)c1	1.4	0.8

Compound	fold increase 3H incorporation (at 100 µM)	fold increase 3H incorporation [1]
COc1ccc2c(=O)n(C3CCCC3)sc2c1	0 (inactive)	0.9
Cc1ccc(N=c2ssnc2Cl)c([N+](=O)[O-])c1	3.2	1.5
O=c1c2ccccc2sn1-c1ccc(Cl)cc1	0.6	3.4
Cc1ccc(N=c2ssnc2Cl)cc1	1.6	1.1
O=C1c2ccccc2SC1c1ccccc1 (stereo not given)	1.7	2.1
Cc1cccc(-n2sc3ccccc3c2=O)c1	2.3	2
O=C(NCc1ccccc1)c1cccc(-n2sc3ccccc3c2=O)c1	1.2 (inactive)	1.2
Cc1cccc(-n2sc3cc(F)ccc3c2=O)c1C	0.5	2.1
CN(C)c1cccc(N=c2ssnc2Cl)c1	0.2 (inactive)	0.3
Oc1ccc(N=c2ssnc2Cl)cc1	0.7 (inactive)	0.8
Cc1ccc(-n2sc3ccccc3c2=O)cc1S(=O)(=O)N1CCCCC1	1.4	1.2
Clc1nss/c1=N\c1nccs1	1 (inactive)	1.1
O=c1c2ccccc2sn1-c1cccc(C(F)(F)F)c1	0.7	1.2
Clc1nssc1=Nc1ccc(Br)cc1	0.5	3.6
Cc1ccc(C=Nn2c(-c3ccncc3)n[nH]c2=S)cc1	1 (inactive)	
O=c1c2ccccc2sn1-c1cc(S(=O)(=O)N2CCOCC2)ccc1N1CCOCC1	0.4 (inactive)	0.8
O=C(O)c1ccccc1NS(=O)(=O)c1cccc(-n2sc3ccccc3c2=O)c1	0 (inactive)	0.2
O=c1c2c([N+](=O)[O-])cc([N+](=O)[O-])cc2sn1-c1ccc(F)cc1	0.8 (inactive)	0.9
CCSc1n[nH]c(=S)s1	1 (inactive)	1
Cc1ccc(N=c2ssnc2Cl)cc1C	0.8 (inactive)	0.8
Cc1ccc(C)n1-c1nc(=S)[nH][nH]1	1 (inactive)	

Compound	fold increase 3H incorporation (at 100 µM)	fold increase 3H incorporation [1]
O=c1c2ccccc2sn1-c1cccc(Cl)c1	0.6	3.4
COc1cc(N=c2ssnc2Cl)cc(OC)c1	1.9	1.1
O=[N+]([O-])c1ccc(N=c2ssnc2Cl)c([N+](=O)[O-])c1	1.5	
Cc1ccc(N=c2ssnc2Cl)cc1[N+](=O)[O-]	0.2	2.1
O=c1c2ccccc2sn1-c1cccc(I)c1	0.7	3.4
Cc1cccc(N=c2ssnc2Cl)c1	0.7	1.6
CN(C)c1cccc(-n2sc3ccccc3c2=O)c1	1.1 (inactive)	1.3
Clc1ccc(N=c2ssnc2Cl)cc1Cl	0.1 (inactive)	0.1
Cc1ccc(C)c(N2Cc3ccccc3C2=O)c1	1.2 (inactive)	1.1
CN(C)S(=O)(=O)c1cccc(-n2sc3ccccc3c2=O)c1	1.1	1.1
N#CC1=C2SCN(Cc3ccccc3)CN2C(=O)CC1c1ccc2c(c1)OCO2 (stereo not given)	1 (inactive)	
COc1ccc(OC)c(N=c2ssnc2Cl)c1	1.7	2.5
Cc1ccc(C)c(-n2[nH]c3ccccc3c2=O)c1	0.8 (inactive)	0.9
S=c1nc(-c2ccccc2Br)[nH][nH]1	0.9 (inactive)	
S=c1nc(C2COc3ccccc3O2)[nH][nH]1 (stereo not given)	0.8 (inactive)	
O=c1c2ccccc2sn1-c1cc(S(=O)(=O)N2CCOCC2)ccc1N1CCCC1	0.7 (inactive)	0.7
Clc1nss/c1=N\c1nc2ccccc2s1	0.1 (inactive)	0.7
S=c1nc(-c2cccc(Cl)c2)[nH][nH]1	1 (inactive)	
CCOc1ccc(-c2nc(=S)[nH][nH]2)cc1	0.7 (inactive)	
Cc1ccnc(-n2sc3ccccc3c2=O)n1	1 (inactive)	0.9
O=C(O)c1cccc(-n2sc3ccccc3c2=O)c1	0.5 (inactive)	0.5

Compound	fold increase 3H incorporation (at 100 µM)	fold increase 3H incorporation [1]
Cc1c(Cl)cccc1-n1sc2cc([N+](=O)[O-])cc(OCC(F)(F)F)c2c1=O	1.1 (inactive)	1.4
S=c1nc(-c2cccc(Br)c2)[nH][nH]1	0.9 (inactive)	
O=c1c2ccc(F)cc2sn1-c1cc(Cl)ccc1Cl	0.8 (inactive)	1
Clc1ccc(Nc2ccccc2N=c2ssnc2Cl)cc1	0.4 (inactive)	0.3
COc1ccc(N=c2ssnc2Cl)cc1OC	0.1 (inactive)	0.3
O=c1c2c([N+](=O)[O-])cc([N+](=O)[O-])cc2sn1-c1ccc(F)c(Cl)c1	0.7 (inactive)	0.9
Clc1nss/c1=N\c1nncs1	0.5 (inactive)	0.9
Nc1ccccc1N=c1ssnc1Cl	0.9 (inactive)	0.9
COc1ccc(-c2nc(=S)[nH][nH]2)cc1	0.8 (inactive)	1
COc1cc(N=c2ssnc2Cl)cc(OC)c1OC	1.2 (inactive)	1.1
CC(C)(C)c1ccc(N=c2ssnc2Cl)cc1	1 (inactive)	0.7
Clc1nssc1=Nc1ccccc1	1.9	1.2
O=c1c2ccccc2sn1-c1ccccc1	1	1.1
O=c1c2ccccc2sn1-c1nccs1	1 (inactive)	0.9
O=C(O)CCn1cc(C=C2C(=O)NC(=S)NC2=O)c(-c2cccc(Br)c2)n1	0.8 (inactive)	
Cc1ccc(-n2sc3ccccc3c2=O)cc1	1 (inactive) and 0.6 (inactive)	1.1 and 1.2
COc1cc(N=c2ssnc2Cl)c(OC)cc1Cl	1.9	1.2
Cc1ccc(C)c(-n2sc3cc(F)ccc3c2=O)c1	0.6	1.4
COC(=O)c1cccc(-n2sc3ccccc3c2=O)c1	1.7	1.5
O=c1c2ccccc2sn1-c1ccc(Cl)c(S(=O)(=O)N2CCOCC2)c1	1.2 (inactive)	1
CN(C)c1ccc(N=c2ssnc2Cl)cc1	1 (inactive)	0.8
